Experimental data from patent EP4624465A1, “COMPOUND SERVING AS DDR1 KINASE INHIBITOR, AND MEDICINE” (Nippon Shinyaku Co., Ltd., priority 2022, dated 2024).
Several values for one entry are separate records, joined by “and”; a condition that tells them apart may be missing. Equal values may be shown once. Where a name gives a salt, the structure may show the parent alone.

Key:
DDR1 kinase [1] = target: T1, DDR1 kinase (Homo sapiens, UniProt Q08345); assay: Evaluation of DDR1 kinase inhibition (LANCE Ultra TR-FRET kinase assay); type: biochemical; design: purchased Carna Biosciences 08-113; conditions: DDR1 protein 0.5 nM, LANCE Ultra ULight-poly GAT substrate, 2 hours at room temperature, duplicate; read-out: DDR-1 IC50
Target sequence in this assay (Q08345 19-876 isoform Q08345-2 limits assumed): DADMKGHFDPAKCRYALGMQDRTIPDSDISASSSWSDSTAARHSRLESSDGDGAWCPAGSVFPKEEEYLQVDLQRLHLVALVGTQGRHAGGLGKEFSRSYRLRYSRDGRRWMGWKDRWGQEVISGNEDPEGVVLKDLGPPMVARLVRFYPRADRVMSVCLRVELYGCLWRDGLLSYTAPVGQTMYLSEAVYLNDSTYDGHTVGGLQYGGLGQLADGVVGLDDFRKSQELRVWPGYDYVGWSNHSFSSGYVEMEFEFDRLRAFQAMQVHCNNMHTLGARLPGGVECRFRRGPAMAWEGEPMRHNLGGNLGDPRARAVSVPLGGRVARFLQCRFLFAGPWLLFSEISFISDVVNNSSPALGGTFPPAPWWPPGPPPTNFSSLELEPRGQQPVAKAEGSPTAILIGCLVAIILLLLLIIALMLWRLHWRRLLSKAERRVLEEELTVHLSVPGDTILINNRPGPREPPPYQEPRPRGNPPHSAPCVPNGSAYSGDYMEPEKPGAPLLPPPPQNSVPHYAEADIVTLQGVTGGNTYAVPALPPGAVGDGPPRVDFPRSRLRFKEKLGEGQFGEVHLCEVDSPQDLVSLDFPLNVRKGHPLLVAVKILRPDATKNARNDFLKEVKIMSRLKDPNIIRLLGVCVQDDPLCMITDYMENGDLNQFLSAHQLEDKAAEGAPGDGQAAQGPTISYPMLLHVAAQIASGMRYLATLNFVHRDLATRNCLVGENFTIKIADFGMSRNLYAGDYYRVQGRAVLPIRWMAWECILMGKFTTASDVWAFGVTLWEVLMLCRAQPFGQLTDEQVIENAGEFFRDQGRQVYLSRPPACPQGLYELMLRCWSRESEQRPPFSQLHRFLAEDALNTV

DDR1 kinase [2] = target: T1, DDR1 kinase; assay: Evaluation of DDR1 kinase inhibition in DDR1-expressing U2OS cells (type I collagen stimulation, PathHunter detection); type: cell-based; design: host or cells: U2OS; conditions: type I collagen 50 µg/mL stimulation, duplicate, read-out: DDR-1 IC50
Target sequence in this assay (Q08345 19-913): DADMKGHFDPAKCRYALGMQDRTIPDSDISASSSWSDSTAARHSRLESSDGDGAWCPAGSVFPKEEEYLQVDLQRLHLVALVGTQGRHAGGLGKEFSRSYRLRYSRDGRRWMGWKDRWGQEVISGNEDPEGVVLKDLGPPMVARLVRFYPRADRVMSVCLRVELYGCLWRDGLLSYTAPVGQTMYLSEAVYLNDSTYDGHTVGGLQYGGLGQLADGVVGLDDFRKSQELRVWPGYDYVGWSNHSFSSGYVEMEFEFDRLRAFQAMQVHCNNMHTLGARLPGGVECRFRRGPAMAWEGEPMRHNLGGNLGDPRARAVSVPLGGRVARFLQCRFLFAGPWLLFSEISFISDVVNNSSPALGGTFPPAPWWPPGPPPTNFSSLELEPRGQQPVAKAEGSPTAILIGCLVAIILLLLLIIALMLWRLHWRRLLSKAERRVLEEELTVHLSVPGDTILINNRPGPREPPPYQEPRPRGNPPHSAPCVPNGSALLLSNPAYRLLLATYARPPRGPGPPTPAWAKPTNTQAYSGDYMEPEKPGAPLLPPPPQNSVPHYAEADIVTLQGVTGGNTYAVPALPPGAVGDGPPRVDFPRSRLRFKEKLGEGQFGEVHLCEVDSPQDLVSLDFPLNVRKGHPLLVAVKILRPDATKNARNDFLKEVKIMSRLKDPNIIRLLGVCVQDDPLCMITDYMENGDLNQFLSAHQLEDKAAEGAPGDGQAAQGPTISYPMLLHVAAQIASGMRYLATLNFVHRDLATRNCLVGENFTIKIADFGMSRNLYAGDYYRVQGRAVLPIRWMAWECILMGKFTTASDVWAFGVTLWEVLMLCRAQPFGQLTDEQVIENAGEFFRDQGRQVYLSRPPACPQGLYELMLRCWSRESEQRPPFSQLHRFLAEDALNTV

IC50 (DDR1 kinase [1]) [nM]	IC50 (DDR1 kinase [2])	SMILES
2	17 nM	CN(C(=O)Cn1nc(C2CN(C(=O)c3cc(N)ncc3F)C2)c2ccccc21)C1CC(F)(F)C1 [Compound E-250, 2-{3-[1-(2-amino-5-fluoropyridine-4-carbonyl)azetidin-3-yl]-1H-indazol-1-yl}-N-(3,3-difluorocyclobutyl)-N-methylacetamide]
5.4	170 nM	CN(CC(F)(F)F)C(=O)Cn1nc(C2CN(C(=O)c3cc(N)ncc3F)C2)c2c(F)cccc21 [Compound E-59, 2-{3-[1-(2-amino-5-fluoropyridine-4-carbonyl)azetidin-3-yl]-4-fluoro-1H-indazol-1-yl}-N-methyl-N-(2,2,2-trifluoroethyl)acetamide]
22	93 nM	CN(CC(F)(F)F)C(=O)Cn1nc(C2CN(C(=O)c3ccnc(N)c3)C2)c2c(F)cccc21 [Compound E-87, 2-{3-[1-(2-aminopyridine-4-carbonyl)azetidin-3-yl]-4-fluoro-1H-indazol-1-yl}-N-methyl-N-(2,2,2-trifluoroethyl)acetamide]
11	610 nM	Nc1cc(C(=O)N2CCC(c3nn(CC(=O)N4CCO[C@@H](C(F)(F)F)C4)c4cccc(F)c34)CC2)ccn1 [Compound E-91, 2-{3-[1-(2-aminopyridine-4-carbonyl)piperidin-4-yl]-4-fluoro-1H-indazol-1-yl]-1-[(2R)-2-(trifluoromethyl)morpholin-4-yl]ethan-1-one]
47	300 nM	Cn1nccc1NC(=O)Cn1nc(C2CN(C(=O)c3cc(N)ncc3F)C2)c2ccccc21 [Compound E-247, 2-{3-[1-(2-amino-5-fluoropyridine-4-carbonyl)azetidin-8-yl]-1H-indazol-1-yl}-N-(1-methyl-1H-pyrazol-5-yl)acetamide]
3.5	320 nM	Cc1c(C(=O)N2CC(c3nn(CC(=O)N4CCC[C@H]4C(F)(F)F)c4cc(F)cc(F)c34)C2)ccnc1N [Compound E-77, 2-{3-[1-(2-amino-3-methylpyridine-4-carbonyl)azetidin-3-yl]-4,6-difluoro-1H-indazol-1-yl}-1-{(2S)-2-(trifluoromethyl)pyrrolidin-1-yl]ethan-1-one hydrochloride]
9.3	20 nM	C[C@@H](N(C)C(=O)Cn1nc(C2CN(C(=O)c3cc(N)ncc3F)C2)c2ccccc21)C(F)(F)F [Compound E-262, 2-{3-[1-(2-amino-5-fluoropyridine-4-carbonyl)azetidin-3-yl]-1H-indazol-1-yl}-N-methyl-N-[(2R)-1,1,1-trifluoropropan-2-yl]acetamide]
11	460 nM	CC(C)(C)NC(=O)Cn1nc(C2CN(C(=O)c3ccnc(N)c3)C2)c2c(F)cc(F)cc21 [Compound E-189, 2-(3-[1-(2-aminopyridine-4-carbonyl)azetidin-3-yl]-4,6-difluoro-1H-indazol-1-yl}-N-tert-butylacetamide]
4.4	140 nM	CN(CC(F)(F)F)C(=O)Cn1nc(C2CN(C(=O)c3ccnc(N)c3)C2)c2ccccc21 [Compound E-45, 2-{3-[1-(2-aminopyridine-4-carbonyl)azetidin-3-yl]-1H-indazol-1-yl}-N-methyl-N-(2,2,2-trifluoroethyl)acetamide]
2.8	960 nM and 1600 nM	O=C(Cn1nc(C2CN(C(=O)c3ccnc4[nH]ccc34)C2)c2c(Cl)cccc21)NCC(F)(F)F [Compound E-61]
47	1200 nM	Nc1cc(C(=O)N2CC(c3nn(CC(=O)N4CCC[C@H]4C(F)(F)F)c4ccncc34)C2)ccn1 [Compound E-13, 2-{3-[1-(2-aminopyridine-4-carbonyl)azetidin-3-yl]-1H-pyrazolo[4,3-c]pyridin-1-yl]-1-[(2S)-2-(trifluoromethyl)pyrrolidin-1-yl]ethan-1-one hydrochloride]
1.7	120 nM	Nc1cc(C(=O)N2CC(c3nn(CC(=O)NCC(F)(F)F)c4ccc(F)c(Br)c34)C2)ccn1 [Compound E-70, 2-{3-[1-(2-aminopyridine-4-carbonyl)azetidin-3-yl]-4-bromo-5-fluoro-1H-indazol-1-yl}-N-(2,2,2-trifluoroethyl)acetamide hydrochloride]
25	470 nM	Nc1cc(C(=O)N2CC(c3nn(Cc4cccc(C(F)(F)F)c4)c4cccc(F)c34)C2)ccn1 [Compound E-113, 4-[3-(4-fluoro-1-{[3-(trifluoromethyl)phenyllmethyl}-1H-indazol-3-yl)azetidine-1-carbonyl]pyridin-2-amine hydrochloride]
1.5	140 nM	CN(CC(F)(F)F)C(=O)Cn1nc(C2CN(C(=O)c3nc(N)ncc3F)C2)c2cc(Cl)ccc21 [Compound E-21, 2-{3-[1-(2-amino-5-fluoropyrimidine-4-carbonyl)azetidin-3-yl]-5-chloro-1H-indazol-1-yl}-N-methyl-N-(2,2,2-trifluoroethyl)acetamide]
2.2	140 nM	Nc1cc(C(=O)N2CC=C(c3cn(CC(=O)N4CCC[C@H]4C(F)(F)F)c4cccc(F)c34)CC2)ccn1 [Compound E-124]
9.8	1100 nM	O=C(c1ccc2[nH]nnc2c1)N1CC(c2nn(CC(=O)N3CCC[C@H]3C(F)(F)F)c3cc(F)cc(F)c23)C1 [Compound E-169, 2-{3-[1-(1H-1,2,3-benztriazole-5-carbonyl)azetidin-3-yl]-4,6-difluoro-1H-indazol-1-yl}-1-[(2S)-2-(trifluoromethyl)pyrrolidin-1-yl]ethan-1-one]
30	740 nM	Nc1cc(C(=O)N2CC(c3nn(CC(=O)NCC(F)F)c4cccc(F)c34)C2)ccn1 [Compound E-242, 2-{3-[1-(2-aminopyridine-4-carbonyl)azetidin-3-yl]-4-fluoro-1H-indazol-1-yl}-N-(2,2-difluoroethyl)acetamide]
210	2600 nM	Cc1ccnc2c1c(C1CN(C(=O)c3ccnc(N)c3)C1)nn2CC(=O)N1CCC[C@H]1C(F)(F)F [Compound E-15, 2-{3-[1-(2-aminopyridine-4-carbonyl)azetidin-3-yl]-4-methyl-1H-pyrazolo[3,4-b]pyridin-1-yl}-1-[(2S)-2-(trifluoromethyl)pyrrolidin-1-yl]ethan-1-one]
6.1	110 nM	Nc1cc(C(=O)N2CC(c3cn(CC(=O)N4CCC[C@H]4C(F)(F)F)c4ccccc34)C2)ccn1 [Compound E-11, 2-{3-[1-(2-aminopyridine-4-carbonyl)azetidin-3-yl]-1H-indol-1-yl}-1-[(2S)-2-(trifluoromethyl)pyrrolidin-1-yl]ethan-1-one]
4.6	6 nM	C[C@H](N(C)C(=O)Cn1nc(C2CN(C(=O)c3cc(N)ncc3F)C2)c2ccccc21)C(F)(F)F [Compound E-261, 2-{3-[1-(2-amino-5-fluoropyridine-4-carbonyl)azetidin-3-yl]-1H-indazol-1-yl}-N-methyl-N-[(2S)-1,1,1-trifluoropropan-2-yl]acetamide]
10	380 nM	Nc1cc(C(=O)N2CC(c3nn(CC(=O)NC4CC(F)(F)C4)c4ccccc34)C2)ccn1 [Compound E-214, 2-{3-[1-(2-aminopyridine-4-carbonyl)azetidin-3-yl]-1H-indazol-1-yl}-N-(3,3-difluorocyclobutyl)acetamide]
9.5	170 nM	CC(C)N(C)C(=O)Cn1nc(C2CN(C(=O)c3cc(N)ncc3F)C2)c2ccccc21 [Compound E-253, 2-{3-[1-(2-amino-5-fluoropyridine-4-carbonyl)azetidin-3-yl]-1H. indazol-1-yl}-N-methyl-N-(propan-2-yl)acetamide]
27	290 nM	Nc1cc(C(=O)N2CC(c3nn(CC(=O)NCC(F)(F)F)c4ccccc34)C2)ccn1 [Compound E-211, 2-{3-[1-(2-aminopyridine-4-carbonyl)azetidin-3-yl]-1H-indazol-1-yl}-N-(2,2,2-trifluoroethyl)acetamide]
28	1900 nM	Nc1cc(C(=O)N2CC(c3nn(CC(=O)N4CCC[C@@H]4C(F)(F)F)c4cc(F)cc(F)c34)C2)ccn1 [Compound E-50, 2-{3-[1-(2-aminopyridine-4-carbonyl)azetidin-3-yl]-4,6-difluoro-1H-indazol-1-yl]-1-[(2R)-2-(trifluoromethyl)pyrrolidin-1-yl]ethan-1-one]
5.2	110 nM	Nc1cc(C(=O)N2CC(c3nn(Cc4nc(-c5ccc(F)cc5)no4)c4cccc(F)c34)C2)ccn1 [Compound E-104, 4-[3-(4-fluoro-1-{[3-(4-fluorophenyl)-1,2,4-oxadiazol-5-yl]methyl}-1H-indazol-3-yl)azetidine,1-carbonyl)pyridin-2-amine]
21	1400 nM	O=C(c1ccnc(NC2CCOCC2)c1)N1CC(c2nn(CC(=O)N3CCC[C@H]3C(F)(F)F)c3cc(F)cc(F)c23)C1 [Compound E-88, 2-[4,6-difluoro-3-(1-{2-[(oxan-4-yl)amino]pyridine-4-carbonyl}azetidin-3-yl)-1H-indazol-1-yl]-1-[(2S)-2-(trifluoromethyl)pyrrolidin-1-yl]ethan-1-one]
5	140 nM	CN(CC(F)(F)F)C(=O)Cn1nc(C2CN(C(=O)c3cc(N)ncc3F)C2)c2ccccc21 [Compound E-240, 2-{3-[1-(2-amino-5-fluoropyridine-4-carbonyl)azetidin-3-yl}-1H-indazol-1-yl}-N-methyl-N-(2,2,2-trifluoroethyl)acetamide]
6.2	180 nM	Nc1cc(C(=O)N2CC(c3nn(CC(=O)N4CCC[C@H]4C(F)(F)F)c4cncc(F)c34)C2)ccn1 [Compound E-54, 2-{3-[1-(2-aminopyridine-4-carbonyl)azetidin-3-yl]-4-fluoro-1H-pyrazolo[3,4-c]pyridin-1-yl}-1-[(2S)-2-(trifluoromethyl)pyrrolidin-1-yl]ethan-1-one hydrochloride]
13	74 nM	Nc1cc(C(=O)N2CC(c3nn(Cc4nc(C(F)(F)F)no4)c4ccccc34)C2)ccn1 [Compound E-218]
